This is an account of results in patent US7057052B2, “Heterocyclic quinones as pharmaceutical agents” (Duke University, priority 2002, dated 2006).

The assay concerns the target T1, Cdc25B (Homo sapiens, UniProt P30305).
T1 sequence (P30305 1-580): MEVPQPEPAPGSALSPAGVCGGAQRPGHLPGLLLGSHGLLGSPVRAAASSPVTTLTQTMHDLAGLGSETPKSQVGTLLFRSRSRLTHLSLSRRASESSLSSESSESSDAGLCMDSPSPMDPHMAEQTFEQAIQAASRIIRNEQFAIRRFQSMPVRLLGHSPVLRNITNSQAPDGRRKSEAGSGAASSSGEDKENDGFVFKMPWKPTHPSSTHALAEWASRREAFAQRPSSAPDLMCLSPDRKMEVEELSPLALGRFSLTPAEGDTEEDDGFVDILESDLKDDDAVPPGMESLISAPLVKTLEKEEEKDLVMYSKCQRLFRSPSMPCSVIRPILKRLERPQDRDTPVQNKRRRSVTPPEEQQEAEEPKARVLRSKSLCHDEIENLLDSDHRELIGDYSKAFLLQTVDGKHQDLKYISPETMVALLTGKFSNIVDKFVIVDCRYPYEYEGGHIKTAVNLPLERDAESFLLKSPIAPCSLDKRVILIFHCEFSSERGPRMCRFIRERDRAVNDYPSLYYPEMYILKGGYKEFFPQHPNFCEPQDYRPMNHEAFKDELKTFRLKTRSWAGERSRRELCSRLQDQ
The assay can be described thus: Cdc25B phosphatase inhibition (50 μM screen, 3 pt. and 8 pt. IC-50). The following applies: Cdc25B; 3 pt. IC-50 using 1, 7 and 50 μM; read-out: IC50 (3 pt). It counts as biochemical. Here is the method:
Using procedures known to those skilled in the art, the compounds listed in Table 3 were screened against Cdc25A, Cdc25B, and Cdc25C at 50 μM. […] To analyze these effects further, the compounds were then screened against Cdc25B in a 3 pt. IC-50, using 1, 7 and 50 μM. Several of the compounds were also screened with an 8 pt. IC-50 process, using 0.1–10 μM, allowing determination of Hill slopes.
Usually IC50 stands for the point on the concentration scale where inhibition reaches its midpoint. For the compound `CC(C)(C)c1[nH]c2ccccc2c1C1=C(Cl)C(=O)C(c2c[nH]c3c(C(C)(C)C)cccc23)=C(O)C1=O` [8D, 2-(2-tert-butyl-1H-indol-3-yl)-5-(7-tert-butyl-1H-indol-3-yl)-3-chloro-6-hydroxy-[1,4]-benzoquinone], the 50% inhibitory concentration (IC50) was found to be 5.8 µM.

Take `C=CC(C)(C)c1[nH]c2ccccc2c1C1=C(O)C(=O)C(c2c[nH]c3c(CC=C(C)C)cccc23)=C(O)C1=O` [8E, DAQ-B1, reference compound]: the half-inhibitory concentration (IC50) is 0.9 µM.

For `CC(C)(C)c1[nH]c2ccccc2c1C1=C(O)C(=O)C(c2c[nH]c3ccccc23)=C(O)C1=O` [8F, 2-(2-tert-butyl-1H-indol-3-yl)-3,6-dihydroxy-5-(1H-indol-3-yl)-[1,4]-benzoquinone], the half-inhibitory concentration (IC50) worked out at 11.2 µM.

`Cn1cc(C2=C(O)C(=O)C(c3c(C(C)(C)C)[nH]c4ccccc34)=C(O)C2=O)c2ccccc21` [8G, 2-(2-tert-butyl-1H-indol-3-yl)-3,6-dihydroxy-5-(1-methyl-1H-indol-3-yl)-[1,4]-benzoquinone]: the half-maximal inhibitory concentration (IC50) came out at 12 µM.

As to `Cc1[nH]c2ccccc2c1C1=C(O)C(=O)C(c2c(C(C)(C)C)[nH]c3ccccc23)=C(O)C1=O` [8H, 2-(2-tert-butyl-1H-indol-3-yl)-3,6-dihydroxy-5-(2-methyl-1H-indol-3-yl)-[1,4]-benzoquinone], the IC50 was determined as 5.8 µM.

As for `CC(C)(C)c1[nH]c2ccccc2c1C1=C(O)C(=O)C(c2c(C3CC3)[nH]c3ccccc23)=C(O)C1=O` [9A, 2-(2-tert-butyl-1H-indol-3-yl)-3,6-dihydroxy-5-(2-cyclopropyl-1H-indol-3-yl)-[1,4]-benzoquinone], the IC50 was determined as 5.6 µM.

As for `CC(C)c1[nH]c2ccccc2c1C1=C(O)C(=O)C(c2c(C(C)(C)C)[nH]c3ccccc23)=C(O)C1=O` [9B, 2-(2-tert-butyl-1H-indol-3-yl)-3,6-dihydroxy-5-(2-isopropyl-1H-indol-3-yl)-[1,4]-benzoquinone], the half-maximal inhibitory concentration (IC50) is 5 µM.

Take `CC(C)(C)c1[nH]c2ccccc2c1C1=C(O)C(=O)C(c2c(C(C)(C)C)[nH]c3ccccc23)=C(O)C1=O` [9C, 2-(2-tert-butyl-1H-indol-3-yl)-3,6-dihydroxy-5-(2-tert-butyl-1H-indol-3-yl)-[1,4]-benzoquinone]: the half-inhibitory concentration (IC50) amounted to 5.1 µM.

Regarding `CC(C)(C)c1[nH]c2ccccc2c1C1=C(O)C(=O)C(c2c(-c3ccccc3)[nH]c3ccccc23)=C(O)C1=O` [9D, 2-(2-tert-butyl-1H-indol-3-yl)-3,6-dihydroxy-5-(2-phenyl-1H-indol-3-yl)-[1,4]-benzoquinone], the concentration for half-maximal inhibition (IC50) was found to be 6.1 µM.

For `COc1cccc2[nH]cc(C3=C(O)C(=O)C(c4c(C(C)(C)C)[nH]c5ccccc45)=C(O)C3=O)c12` [9E, 2-(2-tert-butyl-1H-indol-3-yl)-3,6-dihydroxy-5-(4-methoxy-1H-indol-3-yl)-[1,4]-benzoquinone], the 50% inhibitory concentration (IC50) was 13.7 µM.

`CC(C)(C)c1[nH]c2ccccc2c1C1=C(O)C(=O)C(c2c[nH]c3cccc(OCc4ccccc4)c23)=C(O)C1=O` [9F, 2-(2-tert-butyl-1H-indol-3-yl)-3,6-dihydroxy-5-(4-benzyloxy-1H-indol-3-yl)-[1,4]-benzoquinone]: the 50% inhibitory concentration (IC50) came to 2.3 µM.

Consider `CC(C)(C)c1[nH]c2ccccc2c1C1=C(O)C(=O)C(c2c[nH]c3ccc(F)cc23)=C(O)C1=O` [9G, 2-(2-tert-butyl-1H-indol-3-yl)-3,6-dihydroxy-5-(5-fluoro-1H-indol-3-yl)-[1,4]-benzoquinone], for which the 50% inhibitory concentration (IC50) came to 8.7 µM.

`COc1ccc2[nH]cc(C3=C(O)C(=O)C(c4c(C(C)(C)C)[nH]c5ccccc45)=C(O)C3=O)c2c1` [9H, 2-(2-tert-butyl-1H-indol-3-yl)-3,6-dihydroxy-5-(5-methoxyl-1H-indol-3-yl)-[1,4]-benzoquinone]: the half-maximal inhibitory concentration (IC50) amounted to 80.3 µM.

For the compound `CC(C)(C)c1[nH]c2ccccc2c1C1=C(O)C(=O)C(c2c[nH]c3ccc(OCc4ccccc4)cc23)=C(O)C1=O` [10A, 2-(2-tert-butyl-1H-indol-3-yl)-3,6-dihydroxy-5-(5-benzyloxy-1H-indol-3-yl)-[1,4]-benzoquinone], the IC50 was 0.6 µM.
